Measured values published in patent US20070117770A1, “Human ribosomal DNA (rDNA) and ribosomal RNA (rRNA) nucleic acids and uses thereof” (Cylene Pharmaceuticals, Inc., priority 2005, published 2007).

Assays:
Assay in all cases: Protein kinase inhibition assay
Assay type in all cases: biochemical
Fer(h) = Fer(h) (Homo sapiens, UniProt P16591); conditions: read-out: percent residual activity of Fer(h)
Protocol: (§1) Certain compounds were tested for activity in protein kinase inhibition assays. All substrates were dissolved and diluted to working stocks in de-ionized water, apart from histone H1 (10× working stock in 20 mM MOPS pH 7.0), PDKtide (10× working stock in 50 mM Tris pH 7.0) ATF2 (which is typically stored at a 20× working stock in 50 mM Tris pH 7.5, 150 mM NaCl, 0.1 mM EGTA, 0.03% Brij-35, 50% glycerol, 1 mM benzamidine, 0.2 mM PMSF and 0.1% R-mercaptoethanol), KKLNRTLSFAEPG (SEQ ID NO:203) and RRRLSFAEPG (SEQ ID NO:204) (50 mM HEPES pH 7.4) and GGEEEEYFELVKKKK (SEQ ID NO:205) (20 mM MOPS pH 7.0). All kinases were pre-diluted to a 10× working concentration prior to addition into the assay. The composition of the dilution buffer for each kinase is detailed below.
(§2) In a final reaction volume of 25 μl, Fer (h) (5-10 mU) is incubated with 8 mM MOPS pH 7.0, 0.2 mM EDTA, 1 mM MnCl2, 250 μM KKKSPGEYVNIEFG (SEQ ID NO:207), 10 mM MgAcetate and [gamma-33P-ATP] (specific activity approx. 500 cpm/pmol, concentration as required). The reaction is initiated by the addition of the MgATP mix. After incubation for 40 minutes at room temperature, the reaction is stopped by the addition of 5 μl of a 3% phosphoric acid solution. […]

ZAP-70(h) = ZAP-70(h) (Homo sapiens, UniProt P43403); conditions: read-out: percent residual activity of ZAP-70(h)
Sequence of ZAP-70(h) (P43403 whole entry): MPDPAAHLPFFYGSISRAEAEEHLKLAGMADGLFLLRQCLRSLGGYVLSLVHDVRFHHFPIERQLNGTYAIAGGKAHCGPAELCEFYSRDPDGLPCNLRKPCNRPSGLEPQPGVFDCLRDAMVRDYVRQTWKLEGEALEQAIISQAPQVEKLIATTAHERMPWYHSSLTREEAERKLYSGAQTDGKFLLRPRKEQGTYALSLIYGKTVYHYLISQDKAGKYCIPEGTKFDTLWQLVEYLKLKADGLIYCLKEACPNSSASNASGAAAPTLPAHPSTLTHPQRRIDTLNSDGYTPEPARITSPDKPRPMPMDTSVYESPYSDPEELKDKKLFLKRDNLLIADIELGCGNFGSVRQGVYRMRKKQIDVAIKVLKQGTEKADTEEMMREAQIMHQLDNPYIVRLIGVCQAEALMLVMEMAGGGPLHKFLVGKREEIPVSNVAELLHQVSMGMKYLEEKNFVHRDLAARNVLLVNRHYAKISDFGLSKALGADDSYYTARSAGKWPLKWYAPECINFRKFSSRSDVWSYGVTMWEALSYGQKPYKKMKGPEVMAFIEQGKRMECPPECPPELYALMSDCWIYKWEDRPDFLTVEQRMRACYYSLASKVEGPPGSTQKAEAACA
Protocol: as §1
as §2, with “ZAP-70” for “Fer”, “50” for “8”, “Tris” for “MOPS”, “7.5, 0.1” for “7.0, 0.2”, “EGTA, 0.1 mM Na3VO4, 0.1% R-mercaptoethanol, 0.1 mg/ml poly(Glu, Tyr) 4:1, 10” for “EDTA, 1”, “MnCl2,” for “MnCl2, 250 μM KKKSPGEYVNIEFG (SEQ ID NO:207),”

cSRC(h) = cSRC(h) (Homo sapiens, UniProt P12931); conditions: read-out: percent residual activity of cSRC(h)
Sequence of cSRC(h) (P12931 whole entry): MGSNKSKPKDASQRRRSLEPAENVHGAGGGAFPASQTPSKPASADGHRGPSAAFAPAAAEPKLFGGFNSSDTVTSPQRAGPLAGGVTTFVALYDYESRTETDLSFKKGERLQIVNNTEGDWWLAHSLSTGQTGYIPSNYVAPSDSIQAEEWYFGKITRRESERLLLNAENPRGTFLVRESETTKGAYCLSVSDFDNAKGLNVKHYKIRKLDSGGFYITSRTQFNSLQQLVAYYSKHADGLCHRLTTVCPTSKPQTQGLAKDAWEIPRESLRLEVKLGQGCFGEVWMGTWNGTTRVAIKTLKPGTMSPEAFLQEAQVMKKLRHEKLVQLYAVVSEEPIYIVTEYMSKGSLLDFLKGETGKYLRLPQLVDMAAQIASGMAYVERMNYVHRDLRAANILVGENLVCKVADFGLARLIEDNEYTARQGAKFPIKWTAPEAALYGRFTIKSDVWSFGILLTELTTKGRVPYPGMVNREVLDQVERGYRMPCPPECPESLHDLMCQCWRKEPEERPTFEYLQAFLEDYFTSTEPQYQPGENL
Protocol: as §1
as §2, with “cSRC” for “Fer”, “EDTA,” for “EDTA, 1 mM MnCl2,”, “KVEKIGEGTYGVVYK” for “KKKSPGEYVNIEFG”, “NO:211) (Cdc2 peptide),” for “NO:207),”, “[y-33P-ATP]” for “[gamma-33P-ATP]”

PKCε(h) = PKCε(h) (Homo sapiens, UniProt Q02156); conditions: read-out: percent residual activity of PKCε(h)
Sequence of PKCε(h) (Q02156 whole entry): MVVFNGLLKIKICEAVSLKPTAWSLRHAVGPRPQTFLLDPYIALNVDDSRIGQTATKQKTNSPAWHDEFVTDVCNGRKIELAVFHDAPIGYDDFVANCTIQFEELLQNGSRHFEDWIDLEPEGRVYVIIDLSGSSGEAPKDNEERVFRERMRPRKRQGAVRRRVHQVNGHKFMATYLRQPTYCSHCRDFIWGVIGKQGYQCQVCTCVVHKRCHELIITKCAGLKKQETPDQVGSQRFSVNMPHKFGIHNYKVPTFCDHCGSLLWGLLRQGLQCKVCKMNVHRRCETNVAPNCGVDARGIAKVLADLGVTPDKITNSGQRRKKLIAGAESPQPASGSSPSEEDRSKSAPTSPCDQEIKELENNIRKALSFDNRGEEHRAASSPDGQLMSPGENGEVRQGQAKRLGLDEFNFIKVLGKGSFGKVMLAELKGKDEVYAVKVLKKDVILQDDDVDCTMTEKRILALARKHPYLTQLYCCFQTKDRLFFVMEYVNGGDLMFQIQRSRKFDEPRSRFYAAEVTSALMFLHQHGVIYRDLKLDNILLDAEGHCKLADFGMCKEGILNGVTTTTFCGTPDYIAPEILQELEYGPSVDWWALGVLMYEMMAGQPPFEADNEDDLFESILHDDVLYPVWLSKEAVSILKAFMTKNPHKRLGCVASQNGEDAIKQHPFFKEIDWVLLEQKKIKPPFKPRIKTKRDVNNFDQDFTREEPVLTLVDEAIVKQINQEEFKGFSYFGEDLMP
Protocol: as §1
In a final reaction volume of 25 μl, PKCε (h) (5-10 mU) is incubated with 20 mM HEPES pH 7.4, 0.03% Triton X-100, 0.1 mg/ml phosphatidylserine, 10 μg/ml diacylglycerol, 50 μM ERMRPRKRQGSVRRRV (SEQ ID NO:224), 10 mM MgAcetate and [gamma-33P-ATP] (specific activity approx. 500 cpm/pmol, concentration as required). The reaction is initiated by the addition of the MgATP mix. After incubation for 40 minutes at room temperature, the reaction is stopped by the addition of 5 pi of a 3% phosphoric acid solution. […]

Hck(h) = Hck(h) (Homo sapiens, UniProt P08631); conditions: read-out: percent residual activity of Hck(h)
Sequence of Hck(h) (P08631 whole entry): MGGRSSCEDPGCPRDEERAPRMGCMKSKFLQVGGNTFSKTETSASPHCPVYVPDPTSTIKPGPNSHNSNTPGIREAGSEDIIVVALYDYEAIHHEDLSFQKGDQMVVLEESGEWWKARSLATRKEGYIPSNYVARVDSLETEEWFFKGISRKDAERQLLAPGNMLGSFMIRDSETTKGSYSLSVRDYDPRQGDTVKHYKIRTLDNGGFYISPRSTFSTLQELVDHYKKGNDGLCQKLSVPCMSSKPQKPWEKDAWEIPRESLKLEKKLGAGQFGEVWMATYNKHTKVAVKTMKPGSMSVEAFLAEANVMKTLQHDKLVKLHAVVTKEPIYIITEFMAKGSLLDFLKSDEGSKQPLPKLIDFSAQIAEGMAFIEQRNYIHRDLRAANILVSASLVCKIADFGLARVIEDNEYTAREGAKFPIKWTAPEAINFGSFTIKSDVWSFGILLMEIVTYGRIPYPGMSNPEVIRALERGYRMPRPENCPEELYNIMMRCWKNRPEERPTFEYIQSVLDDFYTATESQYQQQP
Protocol: as §1
as §2, with “Hck” for “Fer”, “EDTA,” for “EDTA, 1 mM MnCl2,”, “KVEKIGEGTYGVVYK (Cdc2 peptide)” for “KKKSPGEYVNIEFG”, “NO:211),” for “NO:207),”

MKK4(m) = MKK4(m) (Mus musculus, UniProt P47809); conditions: read-out: percent residual activity of MKK4(m)
Sequence of MKK4(m) (P47809 whole entry): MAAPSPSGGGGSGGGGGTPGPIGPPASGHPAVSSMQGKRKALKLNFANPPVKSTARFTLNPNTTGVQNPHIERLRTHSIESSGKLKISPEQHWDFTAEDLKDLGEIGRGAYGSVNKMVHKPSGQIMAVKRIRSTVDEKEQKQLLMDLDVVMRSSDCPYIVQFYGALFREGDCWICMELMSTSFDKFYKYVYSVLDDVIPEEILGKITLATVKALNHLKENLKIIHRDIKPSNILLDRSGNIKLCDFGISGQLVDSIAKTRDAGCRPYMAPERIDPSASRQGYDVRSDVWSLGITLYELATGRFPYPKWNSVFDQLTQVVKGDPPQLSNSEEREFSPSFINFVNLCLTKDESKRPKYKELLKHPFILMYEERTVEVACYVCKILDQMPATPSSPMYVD
Protocol: as §1
The reaction is initiated by the addition of the MGATP. After incubation for 40 minutes at room temperature, 5 μl of this incubation mix is used to initiate a JNK1α1 (h) assay, which is exactly as described on page 11 of this book except that ATF2 is replaced with 250 μM peptide.

Rsk3(h) = Rsk3(h) (Homo sapiens, UniProt Q15349); conditions: read-out: percent residual activity of Rsk3(h)
Sequence of Rsk3(h) (Q15349 whole entry): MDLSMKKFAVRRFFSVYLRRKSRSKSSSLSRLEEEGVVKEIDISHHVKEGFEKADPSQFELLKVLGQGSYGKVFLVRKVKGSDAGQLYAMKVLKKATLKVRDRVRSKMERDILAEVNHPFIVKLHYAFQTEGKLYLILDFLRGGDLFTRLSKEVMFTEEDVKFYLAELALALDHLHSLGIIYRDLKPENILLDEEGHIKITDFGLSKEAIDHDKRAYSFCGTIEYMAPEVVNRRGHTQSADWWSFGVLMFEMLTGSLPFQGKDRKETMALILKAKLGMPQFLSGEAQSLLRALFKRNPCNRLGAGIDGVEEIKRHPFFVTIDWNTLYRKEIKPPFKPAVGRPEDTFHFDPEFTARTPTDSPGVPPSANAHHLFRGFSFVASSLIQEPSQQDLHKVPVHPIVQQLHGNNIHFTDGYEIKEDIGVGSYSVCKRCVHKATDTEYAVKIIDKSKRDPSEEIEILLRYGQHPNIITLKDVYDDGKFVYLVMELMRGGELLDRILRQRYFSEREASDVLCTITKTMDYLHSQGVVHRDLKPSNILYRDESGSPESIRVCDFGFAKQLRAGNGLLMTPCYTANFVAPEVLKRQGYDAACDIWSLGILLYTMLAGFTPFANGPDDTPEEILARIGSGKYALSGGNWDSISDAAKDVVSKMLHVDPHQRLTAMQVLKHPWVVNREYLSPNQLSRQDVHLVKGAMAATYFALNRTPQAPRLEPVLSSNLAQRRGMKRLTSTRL
Protocol: as §1
In a final reaction volume of 25 μl, Rsk3 (h) (5-10 mU) is incubated with 8 mM MOPS pH 7.0, 0.2 mM EDTA, 30 μM KKKNRTLSVA (SEQ ID NO:212), 10 mM MgAcetate and [gamma-33P-ATP] (specific activity approx. 500 cpm/pmol, concentration as required). The reaction is initiated by the addition of the MgATP mix. After incubation for 40 minutes at room temperature, the reaction is stopped by the addition of 5 μl of a 3% phosphoric acid solution. 10 μl of the reaction is then spotted onto a P30 filtermat and washed three times for 5 minutes in 75 mM phosphoric acid and once in methanol prior to drying and scintillation counting.

Sequence of Fer(h) (P16591 whole entry): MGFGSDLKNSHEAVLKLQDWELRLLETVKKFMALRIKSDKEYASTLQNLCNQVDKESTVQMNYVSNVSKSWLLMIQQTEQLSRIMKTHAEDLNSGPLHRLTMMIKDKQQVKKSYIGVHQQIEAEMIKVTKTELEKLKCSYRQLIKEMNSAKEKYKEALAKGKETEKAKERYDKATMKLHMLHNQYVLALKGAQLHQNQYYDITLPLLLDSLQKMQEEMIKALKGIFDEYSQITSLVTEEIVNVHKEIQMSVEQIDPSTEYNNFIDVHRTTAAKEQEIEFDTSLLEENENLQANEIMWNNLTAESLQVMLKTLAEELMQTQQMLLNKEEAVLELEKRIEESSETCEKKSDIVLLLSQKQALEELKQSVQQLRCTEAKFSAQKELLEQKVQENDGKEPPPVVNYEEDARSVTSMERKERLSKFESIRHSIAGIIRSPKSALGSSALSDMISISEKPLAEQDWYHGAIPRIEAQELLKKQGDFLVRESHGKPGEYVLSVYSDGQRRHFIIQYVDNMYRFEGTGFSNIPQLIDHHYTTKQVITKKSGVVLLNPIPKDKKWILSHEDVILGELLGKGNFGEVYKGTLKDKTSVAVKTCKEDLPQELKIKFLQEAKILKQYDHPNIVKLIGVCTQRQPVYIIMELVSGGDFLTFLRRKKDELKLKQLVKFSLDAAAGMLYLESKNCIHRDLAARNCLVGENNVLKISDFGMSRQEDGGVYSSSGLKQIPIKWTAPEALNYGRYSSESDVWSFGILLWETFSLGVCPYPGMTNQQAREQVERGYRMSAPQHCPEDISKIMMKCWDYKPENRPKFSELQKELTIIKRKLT

SMILES: CN1CCCC1CCNC(=O)c1cn2c3c(c(N4CCC(c5cnccn5)C4)c(F)cc3c1=O)Oc1cc3ccccc3cc1-2 (centres unmarked) [Compound A-1]
- remaining activity at 2.5 µM (Fer(h)): 84%
- remaining activity at 2.5 µM (ZAP-70(h)): 130%
- remaining activity at 2.5 µM (cSRC(h)): 33%
- remaining activity at 2.5 µM (PKCε(h)): 99%
- remaining activity at 2.5 µM (Hck(h)): 84%
- remaining activity at 2.5 µM (MKK4(m)): 108%
- remaining activity at 2.5 µM (Rsk3(h)): 89%

SMILES: CC(=O)N1CCN(c2ccc3c(=O)c(C(=O)NCCN4CCCC4)c4n(C)c5ccccc5n4c3n2)CC1 [Compound B-1]
- remaining activity at 2.5 µM (Fer(h)): 94%
- remaining activity at 2.5 µM (ZAP-70(h)): 105%
- remaining activity at 2.5 µM (cSRC(h)): 137%
- remaining activity at 2.5 µM (PKCε(h)): 109%
- remaining activity at 2.5 µM (Hck(h)): 89%
- remaining activity at 2.5 µM (MKK4(m)): 99%
- remaining activity at 2.5 µM (Rsk3(h)): 107%
